In the CheMixHub ionic liquid set:

Assay: xn = mol fraction of the nth substance listed

CCCCCC(=O)O.CCCCCC(=O)[O-].CC[NH+](CC)CCO + CCCC[n+]1ccn(C)c1.COP(=O)([O-])OC
101 kPa
Conditions | viscosity [mPa·s]
278.15 K, x1 = 0.2213 | 768
278.15 K, x1 = 0.6088 | 295.3
283.15 K, x1 = 0.0684 | 1280
283.15 K, x1 = 0.4995 | 242.5
283.15 K, x1 = 0.7258 | 185.3
288.15 K, x1 = 0.2213 | 362
288.15 K, x1 = 0.3088 | 259.7
288.15 K, x1 = 1 | 100.1
293.15 K, x1 = 0.4995 | 130.7
293.15 K, x1 = 0.8535 | 90.5
298.15 K, x1 = 0.2213 | 190.1
298.15 K, x1 = 0.3088 | 140.8
303.15 K, x1 = 0.2213 | 142.4
303.15 K, x1 = 0.6088 | 68.7
303.15 K, x1 = 1 | 47.5
308.15 K, x1 = 0.1429 | 147.9
313.15 K, x1 = 0.0684 | 157
313.15 K, x1 = 0.3088 | 65.2
318.15 K, x1 = 0.3966 | 43.87
318.15 K, x1 = 0.8535 | 29.04
323.15 K, x1 = 0.3966 | 35.8
328.15 K, x1 = 0.4995 | 26.14
328.15 K, x1 = 1 | 17.75
338.15 K, x1 = 0.0684 | 48.21
338.15 K, x1 = 0.2213 | 30.03
338.15 K, x1 = 1 | 12.81
343.15 K, x1 = 0.0684 | 39.73
343.15 K, x1 = 0.2213 | 25.3
343.15 K, x1 = 0.3088 | 20.61
348.15 K, x1 = 1 | 9.52
353.15 K, x1 = 0.2213 | 18.5
353.15 K, x1 = 0.4995 | 11.83
353.15 K, x1 = 0.7258 | 10.11
353.15 K, x1 = 1 | 8.28
358.15 K, x1 = 0.2213 | 16.02
358.15 K, x1 = 1 | 7.24
368.15 K, x1 = 0.3966 | 9.02
373.15 K, x1 = 0.2213 | 10.88

OCCN(CCO)CCO + CCCC[n+]1ccn(C)c1.F[B-](F)(F)F
Conditions | viscosity [mPa·s]
303.15 K, 101 kPa, x1 = 1 | 400

c1ccsc1 + CCCC[n+]1ccn(C)c1.N#C[S-]
100 kPa, x1 = 1
Conditions | viscosity [mPa·s]
298.15 K | 0.655
308.15 K | 0.585
318.15 K | 0.525
328.15 K | 0.47

CN(C)c1ccccc1 + CCCC[n+]1ccn(C)c1.O=S(=O)([N-]S(=O)(=O)C(F)(F)F)C(F)(F)F
viscosity [mPa·s], 100 kPa
Conditions | 288.15 K | 293.15 K | 298.15 K | 303.15 K | 308.15 K | 313.15 K | 318.15 K | 323.15 K | 328.15 K | 333.15 K
x1 = 0.1 | 65.1 | 51.3 | 41.3 | 34 | 28.3 | 23.6 | 20.23 | 17.37 | 15.09 | 13.19
x1 = 0.2 | 52.2 | 41.4 | 33.6 | 28 | 23.4 | 19.61 | 16.9 | 14.6 | 12.74 | 11.19
x1 = 0.2993 | 40.5 | 32.4 | 26.6 | 22.26 | 18.75 | 15.88 | 13.77 | 11.97 | 10.49 | 9.29
x1 = 0.4001 | 30.4 | 24.6 | 20.44 | 17.16 | 14.66 | 12.5 | 10.93 | 9.56 | 8.44 | 7.52
x1 = 0.5005 | 21.72 | 17.79 | 15.06 | 12.73 | 10.96 | 9.44 | 8.34 | 7.36 | 6.55 | 5.86
x1 = 0.5993 | 15.08 | 12.54 | 10.77 | 9.21 | 8.02 | 7 | 6.21 | 5.53 | 4.98 | 4.49
x1 = 0.7 | 9.89 | 8.36 | 7.29 | 6.34 | 5.58 | 4.93 | 4.42 | 3.98 | 3.62 | 3.29
x1 = 0.7996 | 6.07 | 5.25 | 4.64 | 4.12 | 3.68 | 3.3 | 3 | 2.74 | 2.5 | 2.3
x1 = 0.8997 | 3.33 | 2.96 | 2.67 | 2.42 | 2.205 | 2.028 | 1.858 | 1.716 | 1.591 | 1.485
x1 = 1 | 1.536 | 1.415 | 1.302 | 1.206 | 1.123 | 1.056 | 0.981 | 0.92 | 0.865 | 0.819
